From patent US12091409B2, “Ether linked triazoles as NRF2 activators” (ASTEX THERAPEUTICS LIMITED, priority 2016, dated 2024) come the findings set out here.

In this test the test system is NQO1 specific enzyme activity in BEAS-2B cells (marker for NRF2 activation). Kind of test: BEAS-2B NQO1 MTT Assay. Type of test: cell-based. Particulars: Homo sapiens, BEAS-2B, 48 h, NQO1 specific activity induction, 48 hours with compound. Put shortly: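 Cells plated overnight at 37° C., 5% CO2, then exposed to compound for 48 hours. NQO1 activity read in crude lysates with MTT cocktail as kinetic absorbance at 570 nm over 30 minutes. pEC50 from Delta OD/min versus log concentration with a 3-parameter fit.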
As to `CCCn1cc(CO[C@H](c2ccc(C)c(CN3CC(C)(C)Oc4ccccc4S3(=O)=O)c2)C(C)(C)C(=O)O)nn1` [Example 78, (R)-3-(3-((4,4-dimethyl-1,1-dioxido-3,4-dihydro-2H-benzo[b][1,4,5]oxathiazepin-2-yl)methyl)-4-methylphenyl)-2,2-dimethyl-3-((1-propyl-1H-1,2,3-triazol-4-yl)methoxy)propanoic acid], the concentration for a half-maximal effect (EC50) lay within 1 to 10 nM. As for `CCCn1cc(CO[C@H](c2ccc(C)c(CN3C[C@H](C)Cc4ccc(C(F)(F)F)cc4S3(=O)=O)c2)C(C)(C)C(=O)O)nn1` [Example 79, (R)-2,2-dimethyl-3-(4-methyl-3-(((R)-4-methyl-1,1-dioxido-8-(trifluoromethyl)-4,5-dihydrobenzo[f][1,2]thiazepin-2(3H)-yl)methyl)phenyl)-3-((1-propyl-1H-1,2,3-triazol-4-yl)methoxy)propanoic acid], the figure is 1 to 10 nM. The result for `COCCOCCn1cc(CO[C@H](c2ccc(C)c(CN3C[C@@H](C)Oc4ccccc4S3(=O)=O)c2)C(C)(C)C(=O)O)nn1` [Example 80, (R)-3-((1-(2-(2-methoxyethoxy)ethyl)-1H-1,2,3-triazol-4-yl)methoxy)-2,2-dimethyl-3-(4-methyl-3-(((R)-4-methyl-1,1-dioxido-3,4-dihydro-2H-benzo[b][1,4,5]oxathiazepin-2-yl)methyl)phenyl)propanoic acid] reads 1 to 10 nM. Regarding `CC[C@H]1Cc2ccccc2S(=O)(=O)N(Cc2cc([C@H](OCc3cn(CC)nn3)C(C)(C)C(=O)O)ccc2C)C1` [Example 81, (3S)-((1-ethyl-1H-1,2,3-triazol-4-yl)methoxy)-2,2-dimethyl-3-(4-methyl-3-(((S)-4-ethyl-1,1-dioxido-4,5-dihydrobenzo[f][1,2]thiazepin-2(3H)-yl)methyl)phenyl)propanoic acid], the EC50 lay in the range of 1 to 10 nM. The result for `CC[C@@H]1CN(Cc2cc([C@@H](OCc3cn(CC)nn3)C(C)(C)C(=O)O)ccc2C)S(=O)(=O)c2ncccc2O1` [Example 82, (R)-3-(3-(((R)-4-ethyl-1,1-dioxido-3,4-dihydro-2H-pyrido[3,2-b][1,4,5]oxathiazepin-2-yl)methyl)-4-methylphenyl)-3-((1-ethyl-1H-1,2,3-triazol-4-yl)methoxy)-2,2-dimethylpropanoic acid] reads 1 to 10 nM; that for `CCCn1cc(CO[C@H](c2ccc(C)c(CN3C[C@@H](C)Cc4ccncc4S3(=O)=O)c2)C(C)(C)C(=O)O)nn1` [Example 83, (R)-2,2-dimethyl-3-(4-methyl-3-(((S)-4-methyl-1,1-dioxido-4,5-dihydropyrido[4,3-f][1,2]thiazepin-2(3H)-yl)methyl)phenyl)-3-((1-propyl-1H-1,2,3-triazol-4-yl)methoxy)propanoic acid], less than 1 nM; that for `CCn1cc(CO[C@H](c2ccc(C)c(CN3C[C@@H](C)Cc4ccccc4S3(=O)=O)c2)C(C)(C)C(=O)O)nn1` [Example 84], less than 1 nM.

As to `CC[C@H]1Cc2ccccc2S(=O)(=O)N(Cc2cc([C@@H](OCc3cn(CC)nn3)C(C)(C)C(=O)O)ccc2C)C1` [Example 85, (3R)-((1-ethyl-1H-1,2,3-triazol-4-yl)methoxy)-2,2-dimethyl-3-(4-methyl-3-(((S)-4-ethyl-1,1-dioxido-4,5-dihydrobenzo[f][1,2]thiazepin-2(3H)-yl)methyl)phenyl)propanoic acid], the EC50 is less than 1 nM. As for `CCCn1cc(CO[C@H](c2ccc(C)c(CN3C[C@@H](C)Cc4ccc(C(F)(F)F)cc4S3(=O)=O)c2)C(C)(C)C(=O)O)nn1` [Example 86, (R)-2,2-dimethyl-3-(4-methyl-3-(((S)-4-methyl-1,1-dioxido-8-(trifluoromethyl)-4,5-dihydrobenzo[f][1,2]thiazepin-2(3H)-yl)methyl)phenyl)-3-((1-propyl-1H-1,2,3-triazol-4-yl)methoxy)propanoic acid], the figure is less than 1 nM.

The EC50 is the concentration giving half of the maximal effect.
